Tests used:
[1] = Test B: gastric emptying in conscious guinea pigs (X-ray passage of spheroids); assay type: in vivo; settings: enhancing gastric emptying
Procedure: The compounds of the invention also induce gastric emptying as indicated in standard in vivo tests, e.g. in conscious guinea pigs having stomachs made atonic (i.e. having decreased peristaltic movements) by fasting and wherein the passage of glass spheroids was observed by X-ray techniques. The experiment is effected as follows: • Food was withdrawn for 14 hours before the measurement of gastric emptying. The experiment was conducted under low illumination which minimal noise and disturbance, and was carried out only by those experimentors who had daily contact with the guinea pigs and who carried out the initial training to accustom the guinea pigs to handling. Therefore, animals were subject to minimal stress. […] Gastric emptying was measured as the number of spheroids leaving the stomach.
Six guinea pigs were used at each dose level of drug and responses compared to those of guinea pigs receiving the appropriate vehicle. The significance of differences between drug and control responses was assessed using the Mann Whitney U test.

[2] = test system: high affinity 5-HT receptor; assay: 5-HT induced contraction of isolated longitudinal muscle of guinea pig ileum, high affinity receptor; settings: guinea pig ileum longitudinal muscle strip, 5-HT as agonist
Excerpt: (§1) The isolated longitudinal muscle of the guinea pig ileum with its adhering myenteric plexus is a well established model which permits investigation of the mechanism of action of various neurtransmitters.
(§2) Male guinea pigs (200-400 g) were killed by a blow on the head and exsanguinated. A length of small intestine was removed about 2 cm from the ileo-caecal valve. The mesentery was carefully removed and the ileum was stretched over a glass rod. By stroking tangentially away from the mesenteric attachment with a wad of cotton wool, the longitudinal muscle layer was separated and stripped from the unterlying circular muscle. Longitudinal muscle strips, 3-4 cm length, were mounted in a 10 ml organ bath containing Tyrode solution at 37 ° C and bubbled with 5% carbon dioxide in oxygen. […] Contractions were recorded with an isotonic pendulum lever. […]
(§3) Non-cumulative concentration-response curves for 5-HT were established by adding increasing concentrations of the agonist to the organ bath at intervals of at least 15 min. […] The contractions expressed as percentage of the maximal response to 5-HT obtained from several preparations were plotted as mean values in order to obtain log-concentration-response curves. Inhibition constants were expressed in the form of pA2 values which were graphically determined according to conventional methods (Arunlakshana and Schild, 1959. Mc Kay 1978). […]

[3] = assay type: in vivo, NMRI mice; settings: cholera toxin challenged mice
[4] = Test C: inhibition of 5-hydroxytryptophan (5-HTP) induced increase in gastrointestinal motility (charcoal transit); assay type: in vivo, NMRI mice; settings: 30 minutes before 5-HTP 3 mg/kg, mice
Procedure: In a further test the inhibition of the increase in gastrointestinal motility induced by 5-hydroxytryptophan (5-HTP) by the compounds of the invention was observed.
Male NMRI mice (18-32 g in weight) are deprived of food 20 hours before the test. Water is not limited. The animals are separated by a barrier from their straw and access to feces. At the beginning of the test the animals are separated in individual single cages and water is removed.
All animals were treated with the test compound or saline. l.p. administration was used. Injection volume was 0.1 ml/10 g. 30 minutes after pre-treatment 5-HTP or saline was administered. Injection volume 0.1 ml /10 g. Dose 3 mg/kg. At the same time charcoal was administered perorally (10% suspension in water; 0.1 ml/10g). 45 minutes after the start of the experiment the animals were killed. The intestines from the stomach to the rectum were examined. For each animal the transit distance of the front of the charcoal meal along the intestine was measured. The distance was ascertained as a percentage of the whole intestinal length. Groups of at least 3 animals were used.

[5] = test system: muscle strips from different parts of the guinea pig stomach; assay: Test A: field stimulation-induced contractions in guinea pig stomach muscle strips; settings: facilitation of field stimulation-induced contractions
Excerpt: The compounds of the invention facilitate field stimulation-induced contractions in muscle strips from different parts of the guinea pig stomach and are therefore indicated to increase decreased peristaltic movements in the stomach and to enhance gastric emptying in vivo. The test is effected as follows:-Male Dunkin-Hartley guinea pigs, 340-450 g, which had been starved overnight, were killed by cervical transsection and the stomach removed and placed in Krebs-Henseleit solution (NaCI 118.0, KCI 4.75, KH2P04 1.2, MgS04 1.2, CaC12 2.5, glucose 10 mM). Segments were taken from the body (approximately 20 mm long, 3-4 mm wide) with dissection in a plane suitable to investigate tension changes in the circular muscle layer. Tissues were placed in 30 ml organ baths containing oxygenated (95% 02, 5% C02) Krebs-Henseleit solution at 37 C. One gram tension was applied to the tissues which were allowed to equilibrate for 45-60 min. before electrical stimulation. […] Responses were measured as changes in gram tension, but to allow easier comparison between treatments, data were converted to show changes as percentage values. The significance of differences between control responses and those obtained in the presence of interacting drugs was assessed using the Mann-Whitney U test.

[6] = target: T1, low affinity 5-HT receptors (Cavia porcellus, UniProt O70212); assay: 5-HT induced contraction of isolated longitudinal muscle of guinea pig ileum, low affinity receptor; settings: guinea pig ileum longitudinal muscle strip, 5-HT as agonist
T1 construct: Longitudinal muscle strips, 3-4 cm length, were mounted in a 10 ml organ bath; from tissue; host or cells: guinea pig ileum longitudinal muscle with adhering myenteric plexus
T1 sequence (O70212 20-490): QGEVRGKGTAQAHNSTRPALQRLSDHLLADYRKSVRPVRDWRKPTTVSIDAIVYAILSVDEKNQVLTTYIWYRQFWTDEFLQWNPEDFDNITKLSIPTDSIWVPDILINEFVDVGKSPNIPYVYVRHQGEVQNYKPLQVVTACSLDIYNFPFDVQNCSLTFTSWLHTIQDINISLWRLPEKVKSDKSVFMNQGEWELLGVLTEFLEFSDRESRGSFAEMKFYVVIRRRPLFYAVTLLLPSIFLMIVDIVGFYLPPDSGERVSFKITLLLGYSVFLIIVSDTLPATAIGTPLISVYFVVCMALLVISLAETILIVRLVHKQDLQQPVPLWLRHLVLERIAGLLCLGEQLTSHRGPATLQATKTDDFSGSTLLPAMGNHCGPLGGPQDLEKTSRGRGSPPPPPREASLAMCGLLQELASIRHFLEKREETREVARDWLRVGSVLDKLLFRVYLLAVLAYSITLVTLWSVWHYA
Excerpt: as §1, §2, §3

dopamine binding sites = settings: tritiated haloperidol; cited from earlier work

**Q.** Which “times more active than metoclopramide” value [1] does the source give for CN1[C@@H]2CC[C@H]1C[C@@H](OC(=O)c1c[nH]c3ccccc13)C2 [Compound E, Indol-3-yl carboxylic acid endo-8-methyl-8-aza-bicyclo[3,2,1]-oct-3-yl ester] here?
**A.** about 50 times

**Q.** What about the “pD'2 high affinity receptor” value [2] of the same molecule?
**A.** pD'2 = 5.7

**Q.** And the “effect of an increase in the dose on stomach contents” value [3]?
**A.** did not lead to a reduction in the stomach contents

**Q.** What about the ED50 i.p. [4] of the same molecule?
**A.** 0.07 mg/kg

**Q.** What about the “times more active than metoclopramide” value [5] of the same molecule?
**A.** 100 times

**Q.** What about the “pA2 low affinity receptor” value [6] of the same molecule?
**A.** pA2 = 7.9

**Q.** Which results are given for CN1[C@@H]2CCC[C@H]1C[C@@H](OC(=O)c1csc3ccccc13)C2 [Compound F, Benzo[b]thiophen-3-yl carboxylic acid endo-9-methyl-asa-bicyclo-[3,3,1]non-3-yl ester]?
**A.** pD'2 high affinity receptor [2]: pD'2 = 5.9; ED50 ([4]; Mus musculus, i.p.): 0.025 mg/kg; pA2 low affinity receptor [6]: pA2 = 9.4

**Q.** With CN1[C@@H]2CCC[C@H]1C[C@@H](OC(=O)c1cn(C)c3ccc(F)cc13)C2 [Compound G, 5-fluoro-1-methyl-indol-3-yl carboxylic acid endo-9-methyl-9-aza-bicyclo[3,3,1]non-3-yl ester] as the molecule, how does the ED50 i.p. [4] read?
**A.** 0.002 mg/kg

**Q.** For CCN(CC)CCNC(=O)c1cc(Cl)c(N)cc1OC [metoclopramide], which IC50 (dopamine binding sites) is on record?
**A.** ~170 nM

— patent publication EP0189002B1, “Treatment of gastrointestinal disorders using 5-HT3 antagonists” (SANDOZ AG, priority 1984, dated 1986)
